In BindingDB's records for doi:10.1073/pnas.2111172118 (Baylor College of Medicine, 2021):
pKi: −log10 of the molar value.

Target: Replicase polyprotein 1ab (Severe acute respiratory syndrome coronavirus 2, UniProt P0DTD1)
Assay: Enzyme Inhibition Assay and Ki Values Determination
From the text: Initial hydrolysis rates of fluorescent peptide were plotted as a function of compound concentrations and Ki values were obtained by fitting the data into the Morrison equation (42) with SE from triplicates.

Compound `COc1cc(-c2cccc3[nH]ncc23)cc(CO)c1OCC(=O)N1CCC(Oc2cccc(C(=O)N(C)C)c2)C1` (stereo unspecified) [CDD-1714] has a pKi of 7.62.
